Laboratory results reported in ChEMBL document CHEMBL1128780, “Inactivation of carboxypeptidase a by 2-benzyl-3,4-epithiobutanoic acid” (Bioorg Med Chem Lett, 1995).

Columns and labels:
[1] = (§1) Inhibitory activity against Carboxypeptidase A (CPA)
[2] = as §1; remark: listed apart in the source

| K inact [1] [min⁻¹] | Ki [2] [µM] | SMILES |
| --- | --- | --- |
| 1.11 | 155 | O=C(O)[C@@H](Cc1ccccc1)[C@H]1CO1 |
| 1.59 | 86 | O=C(O)[C@H](Cc1ccccc1)[C@H]1CO1 (single isomer, unassigned) |

| SMILES | K inact [1] [min⁻¹] | Ki [2] [µM] |
| --- | --- | --- |
| O=C(O)[C@H](Cc1ccccc1)[C@H]1CS1 | 1.31 | 94 |
